Measurements: patent publication US9078712B2, “Preformed drug-eluting device to be affixed to an anterior spinal plate” (Warsaw Orthopedic, Inc., priority 2009, dated 2015)

Experiment: Effect of autoclave sterilization on final drug concentration in silicone (FIG. 11)
Type: physicochemical
Conditions: starting concentration about 0.0738 wt %, autoclave about 30 minutes
Method: FIG. 11 illustrates the effect of sterilization on the final drug concentration, showing the degradation rate versus autoclave time, for example, with a starting concentration of about 0.0738 wt % rifampin in the silicone and running the autoclave about 30 minutes will result in a final concentration of about 0.054 wt % rifampin in the silicone sleeve.
The term “weight percent” or “wt %” means the ratio of the drug weight to the weight of the biocompatible matrix, e.g., the silicone after sterilization, for example, an initial concentration of rifampin of about 0.0738 wt % with about a 30 minute autoclave time will result in a final wt % of about 0.054 in the sterilized product.

final concentration of rifampin in the silicone after autoclave sterilization: about 0.054 wt %
SMILES: CO[C@H]1/C=C/O[C@@]2(C)Oc3c(C)c(O)c4c(O)c(c(/C=N/N5CCN(C)CC5)c(O)c4c3C2=O)NC(=O)/C(C)=C\C=C\[C@H](C)[C@H](O)[C@@H](C)[C@@H](O)[C@@H](C)[C@H](OC(C)=O)[C@@H]1C [rifampin]
